Here are results for seven compounds from ChEMBL document CHEMBL5465560, “Selectivity Literature for EUbOPEN Chemogenomic Library” (2024).

Assay [1] addresses T1, Serine/threonine-protein kinase tousled-like 1 (Homo sapiens) (UniProt Q9UKI8).
T1 sequence (whole entry): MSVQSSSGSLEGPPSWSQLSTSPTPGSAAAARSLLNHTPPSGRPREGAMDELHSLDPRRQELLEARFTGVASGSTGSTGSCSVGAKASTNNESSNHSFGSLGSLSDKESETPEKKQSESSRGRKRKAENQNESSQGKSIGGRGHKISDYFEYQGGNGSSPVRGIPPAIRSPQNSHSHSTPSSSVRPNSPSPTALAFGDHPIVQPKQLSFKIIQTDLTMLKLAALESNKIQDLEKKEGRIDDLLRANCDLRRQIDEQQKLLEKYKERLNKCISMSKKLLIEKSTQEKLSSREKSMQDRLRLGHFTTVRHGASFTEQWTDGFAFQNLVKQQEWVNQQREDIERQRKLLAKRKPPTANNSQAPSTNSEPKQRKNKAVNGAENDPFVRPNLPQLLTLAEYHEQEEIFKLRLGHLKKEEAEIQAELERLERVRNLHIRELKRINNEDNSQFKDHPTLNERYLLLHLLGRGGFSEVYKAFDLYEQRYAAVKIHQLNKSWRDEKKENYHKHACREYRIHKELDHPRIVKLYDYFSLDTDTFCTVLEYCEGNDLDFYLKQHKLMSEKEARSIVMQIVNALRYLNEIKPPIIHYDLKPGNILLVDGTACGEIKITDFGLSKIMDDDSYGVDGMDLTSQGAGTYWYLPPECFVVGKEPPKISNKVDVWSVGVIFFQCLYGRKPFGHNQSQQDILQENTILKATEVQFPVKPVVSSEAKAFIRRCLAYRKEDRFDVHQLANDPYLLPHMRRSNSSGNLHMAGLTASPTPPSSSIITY
Kind of assay: Selectivity interaction (LanthaScreen Eu Kinase Binding Assay) EUB0001632a TLK1. Conditions: at 10 µM.

The target in assay [2] is Mitogen-activated protein kinase kinase kinase kinase 5 (Homo sapiens) (UniProt Q9Y4K4). In words: Selectivity interaction (SelectScreen profiling (Invitrogen)) EUB0000607a MAP4K5. Conditions: at 2 µM.
Chain of Mitogen-activated protein kinase kinase kinase kinase 5 (Homo sapiens) (Q9Y4K4 whole entry, looked up): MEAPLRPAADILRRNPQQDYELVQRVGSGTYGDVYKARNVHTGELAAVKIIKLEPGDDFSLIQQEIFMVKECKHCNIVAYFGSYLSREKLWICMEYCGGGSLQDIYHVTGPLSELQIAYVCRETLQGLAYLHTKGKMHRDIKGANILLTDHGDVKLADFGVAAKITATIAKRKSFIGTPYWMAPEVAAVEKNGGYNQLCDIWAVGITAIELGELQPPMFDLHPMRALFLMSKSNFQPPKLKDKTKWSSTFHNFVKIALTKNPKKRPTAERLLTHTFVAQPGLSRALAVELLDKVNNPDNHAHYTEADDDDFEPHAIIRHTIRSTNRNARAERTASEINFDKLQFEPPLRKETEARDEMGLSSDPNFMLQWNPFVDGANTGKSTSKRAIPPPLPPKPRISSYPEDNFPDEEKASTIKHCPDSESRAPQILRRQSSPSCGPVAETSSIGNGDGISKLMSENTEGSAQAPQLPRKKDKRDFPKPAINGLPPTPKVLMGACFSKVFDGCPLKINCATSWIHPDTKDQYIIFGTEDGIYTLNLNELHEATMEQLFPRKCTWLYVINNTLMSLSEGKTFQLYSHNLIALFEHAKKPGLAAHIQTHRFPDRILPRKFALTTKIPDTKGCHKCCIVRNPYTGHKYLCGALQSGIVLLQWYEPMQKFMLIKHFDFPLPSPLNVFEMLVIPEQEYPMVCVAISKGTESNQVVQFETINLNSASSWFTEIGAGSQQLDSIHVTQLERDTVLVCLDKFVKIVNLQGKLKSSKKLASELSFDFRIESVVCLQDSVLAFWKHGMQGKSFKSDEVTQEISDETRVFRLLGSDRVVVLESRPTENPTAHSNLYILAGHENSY
Assay [3] addresses Vascular endothelial growth factor receptor 3 (Homo sapiens, UniProt P35916). Kind of assay: Selectivity interaction (KinomeScan (DiscoverX)) EUB0000666a FLT4. Conditions: at 10 µM.
Assay [4] addresses Protein arginine N-methyltransferase 5 (Homo sapiens, UniProt O14744). In words: Selectivity interaction (Scintillation proximity assays) EUB0000255b PRMT5.
Assay [5] concerns Tyrosine-protein kinase ABL1 (Homo sapiens), P00519 [T315I]. Kind of assay: Selectivity interaction (KinomeScan (DiscoverX)) EUB0001079a ABL1. Conditions: at 1 µM.
The target in assay [6] is T2, Ephrin type-A receptor 3 (Homo sapiens) (UniProt P29320).
T2 sequence (whole entry): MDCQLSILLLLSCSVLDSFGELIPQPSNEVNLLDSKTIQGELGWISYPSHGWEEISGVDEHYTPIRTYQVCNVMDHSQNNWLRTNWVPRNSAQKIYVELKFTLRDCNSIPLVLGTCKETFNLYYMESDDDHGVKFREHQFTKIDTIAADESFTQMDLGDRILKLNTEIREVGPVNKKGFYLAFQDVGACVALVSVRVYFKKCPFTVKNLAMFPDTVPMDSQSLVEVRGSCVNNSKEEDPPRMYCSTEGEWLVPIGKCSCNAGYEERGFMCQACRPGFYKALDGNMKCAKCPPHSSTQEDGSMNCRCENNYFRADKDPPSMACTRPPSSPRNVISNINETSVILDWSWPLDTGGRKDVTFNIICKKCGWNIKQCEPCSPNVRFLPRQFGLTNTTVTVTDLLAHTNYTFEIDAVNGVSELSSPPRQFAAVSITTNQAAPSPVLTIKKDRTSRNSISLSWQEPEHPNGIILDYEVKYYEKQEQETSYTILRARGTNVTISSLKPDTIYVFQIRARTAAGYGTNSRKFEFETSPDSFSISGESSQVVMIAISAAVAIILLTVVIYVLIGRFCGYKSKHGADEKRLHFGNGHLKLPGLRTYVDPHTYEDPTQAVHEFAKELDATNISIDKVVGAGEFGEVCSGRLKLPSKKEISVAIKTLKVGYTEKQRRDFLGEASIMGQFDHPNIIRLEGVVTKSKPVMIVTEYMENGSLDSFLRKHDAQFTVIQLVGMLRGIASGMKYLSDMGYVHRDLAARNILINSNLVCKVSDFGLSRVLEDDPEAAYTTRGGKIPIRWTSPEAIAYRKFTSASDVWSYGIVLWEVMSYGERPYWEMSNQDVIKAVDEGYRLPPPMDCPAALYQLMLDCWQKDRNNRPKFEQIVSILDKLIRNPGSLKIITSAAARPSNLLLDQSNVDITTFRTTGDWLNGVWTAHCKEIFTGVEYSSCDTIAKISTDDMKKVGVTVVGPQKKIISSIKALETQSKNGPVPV
Particulars: at 10 µM.

The target in assay [7] is T3, Inhibitor of nuclear factor kappa-B kinase subunit epsilon (Homo sapiens) (UniProt Q14164).
T3 sequence (whole entry): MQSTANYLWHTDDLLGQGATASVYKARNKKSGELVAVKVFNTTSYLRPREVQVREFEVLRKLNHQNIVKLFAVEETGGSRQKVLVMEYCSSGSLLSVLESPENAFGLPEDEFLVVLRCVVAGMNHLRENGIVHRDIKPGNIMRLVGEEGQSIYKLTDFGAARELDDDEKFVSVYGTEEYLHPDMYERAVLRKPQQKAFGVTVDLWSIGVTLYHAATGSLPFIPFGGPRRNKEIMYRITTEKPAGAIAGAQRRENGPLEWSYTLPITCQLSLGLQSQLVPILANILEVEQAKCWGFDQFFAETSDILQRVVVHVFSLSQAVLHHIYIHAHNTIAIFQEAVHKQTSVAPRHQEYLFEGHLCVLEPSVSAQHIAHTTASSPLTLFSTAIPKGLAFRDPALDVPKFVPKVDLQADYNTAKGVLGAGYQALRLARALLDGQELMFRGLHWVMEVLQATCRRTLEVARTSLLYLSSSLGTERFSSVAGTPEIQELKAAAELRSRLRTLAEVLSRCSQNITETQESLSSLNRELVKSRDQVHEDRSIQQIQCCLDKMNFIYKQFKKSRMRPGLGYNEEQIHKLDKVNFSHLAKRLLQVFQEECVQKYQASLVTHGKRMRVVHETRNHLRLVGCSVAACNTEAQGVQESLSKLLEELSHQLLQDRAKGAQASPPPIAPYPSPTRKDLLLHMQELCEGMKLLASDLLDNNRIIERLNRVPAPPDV
Conditions: at 10 µM.

The target of assay [8] is TRAF2 and NCK-interacting protein kinase (Homo sapiens) (UniProt Q9UKE5). In words: Selectivity interaction (KinomeScan (DiscoverX)) EUB0001049a TNIK. Particulars: at 1 µM.
Chain of TRAF2 and NCK-interacting protein kinase (Homo sapiens) (Q9UKE5 whole entry, looked up): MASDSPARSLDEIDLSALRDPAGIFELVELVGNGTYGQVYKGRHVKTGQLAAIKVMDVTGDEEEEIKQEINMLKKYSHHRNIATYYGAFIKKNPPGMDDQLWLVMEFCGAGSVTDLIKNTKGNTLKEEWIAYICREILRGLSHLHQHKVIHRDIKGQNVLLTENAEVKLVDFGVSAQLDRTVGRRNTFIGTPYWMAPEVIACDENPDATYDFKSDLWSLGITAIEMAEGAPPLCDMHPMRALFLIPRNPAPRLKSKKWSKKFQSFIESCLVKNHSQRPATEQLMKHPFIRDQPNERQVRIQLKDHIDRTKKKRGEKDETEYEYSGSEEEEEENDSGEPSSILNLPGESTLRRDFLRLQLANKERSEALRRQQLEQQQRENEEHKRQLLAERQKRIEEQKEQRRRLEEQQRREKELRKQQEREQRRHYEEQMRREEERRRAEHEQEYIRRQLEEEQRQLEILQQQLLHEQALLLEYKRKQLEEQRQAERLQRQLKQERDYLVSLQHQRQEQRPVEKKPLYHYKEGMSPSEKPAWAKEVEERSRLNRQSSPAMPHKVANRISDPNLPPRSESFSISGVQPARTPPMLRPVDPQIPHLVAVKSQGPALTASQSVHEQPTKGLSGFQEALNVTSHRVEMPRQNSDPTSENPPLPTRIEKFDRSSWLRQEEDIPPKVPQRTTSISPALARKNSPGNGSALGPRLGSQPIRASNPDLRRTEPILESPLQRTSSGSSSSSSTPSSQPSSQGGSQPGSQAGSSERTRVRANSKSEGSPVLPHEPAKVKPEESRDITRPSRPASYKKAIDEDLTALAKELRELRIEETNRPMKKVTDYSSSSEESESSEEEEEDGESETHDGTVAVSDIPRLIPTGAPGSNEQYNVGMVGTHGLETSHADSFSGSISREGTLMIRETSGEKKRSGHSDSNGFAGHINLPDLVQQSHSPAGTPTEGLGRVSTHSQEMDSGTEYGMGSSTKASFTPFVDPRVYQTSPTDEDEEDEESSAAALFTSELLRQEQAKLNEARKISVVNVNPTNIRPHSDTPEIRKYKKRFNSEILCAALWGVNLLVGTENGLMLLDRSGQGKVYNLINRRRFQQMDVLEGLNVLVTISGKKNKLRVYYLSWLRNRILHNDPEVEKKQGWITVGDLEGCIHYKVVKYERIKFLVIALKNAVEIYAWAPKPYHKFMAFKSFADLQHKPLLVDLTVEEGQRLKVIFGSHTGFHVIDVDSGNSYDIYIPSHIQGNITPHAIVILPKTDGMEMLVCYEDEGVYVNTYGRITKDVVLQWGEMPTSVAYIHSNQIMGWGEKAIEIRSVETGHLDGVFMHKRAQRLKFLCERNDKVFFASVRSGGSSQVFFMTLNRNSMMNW

pIC50: −log10 of the molar value. A value given as a limit tells only on which side of the number the result lay.

Chain of Protein arginine N-methyltransferase 5 (O14744 whole entry): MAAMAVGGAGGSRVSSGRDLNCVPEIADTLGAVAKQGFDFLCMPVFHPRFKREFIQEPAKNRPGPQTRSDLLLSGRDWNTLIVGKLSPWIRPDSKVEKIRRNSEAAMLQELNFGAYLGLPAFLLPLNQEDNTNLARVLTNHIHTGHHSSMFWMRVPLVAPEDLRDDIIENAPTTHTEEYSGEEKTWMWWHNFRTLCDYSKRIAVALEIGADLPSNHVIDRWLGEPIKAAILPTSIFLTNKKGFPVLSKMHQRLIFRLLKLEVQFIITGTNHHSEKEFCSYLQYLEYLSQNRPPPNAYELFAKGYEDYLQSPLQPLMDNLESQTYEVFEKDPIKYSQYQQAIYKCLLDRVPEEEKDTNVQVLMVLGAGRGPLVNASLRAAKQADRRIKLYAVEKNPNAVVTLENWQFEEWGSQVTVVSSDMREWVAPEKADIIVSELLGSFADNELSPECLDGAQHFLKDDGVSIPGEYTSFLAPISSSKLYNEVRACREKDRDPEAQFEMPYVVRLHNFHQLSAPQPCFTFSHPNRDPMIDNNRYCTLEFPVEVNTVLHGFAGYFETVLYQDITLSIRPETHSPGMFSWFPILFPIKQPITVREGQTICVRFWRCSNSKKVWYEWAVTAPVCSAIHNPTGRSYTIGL
Chain of Vascular endothelial growth factor receptor 3 (P35916 whole entry): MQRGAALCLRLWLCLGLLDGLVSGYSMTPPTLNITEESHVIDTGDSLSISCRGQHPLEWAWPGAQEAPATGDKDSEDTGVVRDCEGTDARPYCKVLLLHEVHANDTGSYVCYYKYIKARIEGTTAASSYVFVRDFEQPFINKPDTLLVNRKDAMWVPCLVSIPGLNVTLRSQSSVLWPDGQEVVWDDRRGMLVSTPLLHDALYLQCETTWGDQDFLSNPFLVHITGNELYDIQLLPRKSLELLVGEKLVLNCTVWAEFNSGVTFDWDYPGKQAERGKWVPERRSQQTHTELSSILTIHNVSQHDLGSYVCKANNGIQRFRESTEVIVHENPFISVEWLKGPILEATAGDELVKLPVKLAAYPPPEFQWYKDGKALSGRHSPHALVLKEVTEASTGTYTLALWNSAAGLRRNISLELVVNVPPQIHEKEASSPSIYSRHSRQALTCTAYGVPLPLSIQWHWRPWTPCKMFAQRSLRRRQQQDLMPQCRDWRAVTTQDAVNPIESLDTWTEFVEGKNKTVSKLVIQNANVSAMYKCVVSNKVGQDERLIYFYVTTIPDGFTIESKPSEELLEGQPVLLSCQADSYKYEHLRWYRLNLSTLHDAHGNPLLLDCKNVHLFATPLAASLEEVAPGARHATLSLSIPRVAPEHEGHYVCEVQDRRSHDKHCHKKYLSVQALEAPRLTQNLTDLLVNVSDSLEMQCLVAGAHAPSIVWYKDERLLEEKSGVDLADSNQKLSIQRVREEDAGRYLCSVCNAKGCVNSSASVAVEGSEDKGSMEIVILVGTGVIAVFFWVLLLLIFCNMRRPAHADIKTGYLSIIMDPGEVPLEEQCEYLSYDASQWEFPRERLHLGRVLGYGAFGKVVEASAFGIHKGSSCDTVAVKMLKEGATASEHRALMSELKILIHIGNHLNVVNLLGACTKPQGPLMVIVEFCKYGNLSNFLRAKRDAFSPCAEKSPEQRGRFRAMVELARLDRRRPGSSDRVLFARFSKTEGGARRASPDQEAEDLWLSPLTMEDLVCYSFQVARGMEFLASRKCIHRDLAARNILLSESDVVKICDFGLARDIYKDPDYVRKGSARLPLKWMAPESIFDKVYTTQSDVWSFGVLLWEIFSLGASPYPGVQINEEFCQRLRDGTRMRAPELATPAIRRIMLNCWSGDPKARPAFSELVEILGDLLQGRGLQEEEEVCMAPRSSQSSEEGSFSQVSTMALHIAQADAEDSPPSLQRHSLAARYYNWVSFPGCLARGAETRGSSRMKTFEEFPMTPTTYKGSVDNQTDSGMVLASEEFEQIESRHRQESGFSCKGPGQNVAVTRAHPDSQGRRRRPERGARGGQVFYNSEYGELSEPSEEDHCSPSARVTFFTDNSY

`Cn1cc(-n2cnc3c(NCc4nc5cc(Cl)c(Cl)cc5[nH]4)nc(N4CCOCC4)nc32)cn1` came in with a % of inhibition in assay [1] of 5.47%. In assay [2], `CNC(=O)Nc1ccc(-c2nc(N3CC4CCC(C3)O4)c3cnn(C4CCC5(CC4)OCCO5)c3n2)cc1` showed a % of inhibition of 19%. `O=C(NOC[C@H](O)CO)c1ccc(F)c(F)c1Nc1ccc(I)cc1F` showed a % of control in assay [3] of 94%. In turn, `COCCN1CCC(c2cc(CN(C)C(=O)c3cccc(Oc4ccccc4)c3)ccn2)CC1` gave a pIC50 in assay [4] of less than 5.00.

As to `Nc1cnc(N2CCc3cc(S(=O)(=O)Nc4c(F)cc(Cl)cc4F)cc(N4CCCC4=O)c32)nc1` [TP-020n], in assay [5], the % of control was 98%.

`CCN(CC)CCCCNc1ncc2cc(-c3cc(OC)cc(OC)c3)c(NC(=O)NC(C)(C)C)nc2n1`: the % of control in assay [6] and in assay [7] was 100% in each case.

On to `COc1cc(Nc2nc(C)cc(-c3cnn4nc(OC)ccc34)n2)cc(C(F)(F)F)c1`, for which the % of control in assay [8] turned out to be 74%.
